Assay [1] concerns OVA-induced asthmatic mice. Nature of the assay: OVA-induced bronchial asthma mouse model, Standard/Resolution protocols, drug before each i.n. challenge. Format: in vivo, mouse (female BALB/c). The settings on record: 1-, 2- and 3-month groups, versus OVA. From the text:
The OVA-Induced Bronchial Asthma Mouse Model for Inhibition of Mast Cell Degranulation
Reagents: Crystalline OVA was obtained from Pierce Chem. Co. (Rockford, Ill.) aluminum potassium sulfate (alum) from Sigma Chem. Co. (St. Louis, Mo.), pyrogen-free distilled water from Baxter, Healthcare Corporation (Deerfield, Ill.), 0.9% sodium chloride (normal saline) from Lymphomed (Deerfield, Ill.) and Trappsol™ HPB-L100 (aqueous hydroxypropyl beta cyclodextrin; 45 wt/vol % aqueous solution) from Cyclodextrin Technologies Development, Inc. (Gainesville, Fla.). The OVA (500 μg/ml in normal saline) was mixed with equal volumes of 10% (wt/vol) alum in distilled water. The mixture (pH 6.5 using 10 N NaOH) after incubation for 60 minutes at room temperature underwent centrifugation at 750 g for 5 minutes; the pellet was resuspended to the original volume in distilled water and used within one hour.
The selective 5-lipoxtgenase inhibitor, Zileuton (N-[1-benzo[b]thien-2-ylethyl]-N-hydroxyurea; J. Pharmacol Exp Ther. 1991; 256: 929-937), was kindly provided by Drs. Bell and George W. Carter (Abbott Laboratories, Abbott Part, Ill.). Zileuton was dissolved in Trappsol.™. Histatek, Inc. (Seattle, Wash.) provided the mast cell degranulation inhibitor, f-Met-Leu-Phe-Phe (“HK-X”).
Female BALB/c […] (6-8 wk of age at purchase; D and K, Seattle Wash.) were housed under conventional conditions for the studies.
Allergen Immunization/Challenge Protocols: Mice received an i.p. injection of 0.2 ml (100 μg) of OVA with alum on the different protocols of Standard (FIG. 5A) and Resolution (FIG. 5B) (J. Exp Med. 1996; 184: 1483-1494). According to the different protocols, mice were anesthetized with 0.2 ml i.p. of ketamine (0.44 mg/ml)/xylazine (6.3 mg/ml) in normal saline before receiving an intranasal (i.n.) does of 100 μg OVA in 0.05 ml normal saline and an i.n. dose of 50 μg OVA in 0.05 ml normal saline separately on different days. Two control groups were used. Accordingly, the first group received normal saline with alum i.p. and normal saline without alum i.n.; the second group received OVA with alum i.p., OVA without alum i.n., and normal saline, alone.
The trachea and left lung (the right lung is used for bronchoalveolar lavage (“BAL”)) were obtained and fixed in 10% neutral formaldehyde solution at room temperature for 6˜15h. After being embedded in paraffin, the tissues were cut into 5-um sections and processed with the different staining or immunolabling further. Discombe's eosinophil staining was used for counting the cell numbers with the counterstain of methylene blue. The eosinophil number per unit airway area (2,200 μm^2) was determined by morphometry (J. Pathol. 1992; 166: 395-404; Am Rev Respir Dis. 1993; 147:448-456). Fibrosis was identified with the Masson's trichrome staining. Airway mucus was identified by the following staining method: methylene blue, hematoxylin and eosin, mucicarmine, alcian blue, and alcian blue/periodic acid-Schiff (PAS) reaction (Troyer, H., “Carbohydrates” in Principles and Techniques of Histochemistry, Little, Brown and Company, Boston, Mass., 1980: 89-121; Sheehan, D. C., et al., “Carbohydrates” in Theory and Practice of Histotechnology, Battle Press, Columbus, Ohio, 1980: 159-179). Mucin was stained with mucicarmine solution; metanil yellow counterstain was employed.
Acidic mucin and sulfated mucosubstances were stained with alcian blue, pH 2.5; nuclear fast red counterstain was used. Neutral and acidic mucosubstances were identified by alcian blue. pH 2.5, and PAS reaction. The degree of mucus plugging of the airways (0.5-0.8 mm in diameter) was also assessed by morphometry. The percent occlusion of airway diameter by mucus was classified on a semiquantitative scale from 0 to 4+ as described in Figure Legends. The histologic and morphometric analyses were performed by individuals blinded to the protocol design. […]

The subject of a further assay is mast cells. Kind of assay: Rat skin model for inhibition of mast cell degranulation induced by Compound 48/80 (area of capillary permeability/bluing). The conditions noted are these: for % Degranulation: percent mast cell degranulation produced by 48/80, 100 nanomoles peptide, 0.15 μg Compound 48/80. It counts as in vivo, rat (male Sprague-Dawley). From the text: The Rat Skin Model for Determination of Inhibition of Mast Cell Degranulation
Allergy induced asthma results from exposure of substances (allergens) to which an organism has become hypersensitized. Exposure to allergen results in degranulation of mast cells in the lung, releasing leukotrienes and histamines. […] Respiratory symptoms resulting from such an exposure range from mild (itching and sneezing) to potentially fatal (asthma), including in extreme chronic cases death by anaphylaxis.
In this model, the blood plasma of the experimental rat is labeled with the dye trypan blue. This soluble dye is carried in the bloodstream as a passive marker of plasma itself, and is excluded from live cells. Intact blood vessels including the capillary system, retain this dye under normal circumstances. A compound, which induces degranulation of mast cells (resulting in leukotriene and histamine release), is injected into the skin to simulate allergen-induced degranulation. In these experiments, Compound 48/80 was used for this purpose. In the events following leukotriene and histamine release, capillary permeability is increased, and plasma, dyed blue, leaks from capillaries and dyes the skin surrounding the injection site blue. The area of bluing is a measure of the amount of Compound 48/80 injected.
A compound can be tested for “anti-leukotriene” and/or “anti-histamine” activity by mixing it with Compound 48/80 prior to injection.
The rat skin model was undertaken and validated. Various peptides were tested at a predetermined dose for anti-leukotriene and/or anti-histamine activity. The dose selected allowed a general comparison to f-Met-Leu-Phe, which was standard compound for comparison.
A “dose response” titration was performed for some compounds and compared with the standard compound. Observing serial decreases in the size areas of capillary permeability using serially smaller doses of the putative inhibitory compound validates the inhibition of leukotriene and/or histamine release observed in the initial predetermined dose test.
Reagents were obtained from Sigma or Aldrich, with the exception of ketamine, a veterinary anaesthetic that was obtained from various veterinary suppliers. The rats used were male Sprague-Dawley breed, 220-240 g at time of purchase from B&K International.
For the rat skin reaction, rats were anaesthetized with 0.25 ml 10 mg/ml ketamine. 1.0 ml trypan blue in saline (sterile filtered) was administered in a tail vein, and the back of the rat was shaved. Four intradermal injection sites per rat were used for test and control injections.
Compound 48/80 was prepared as a 1.5 mg/ml stock solution in saline. […] Serial dilutions in saline to working levels were prepared just prior to injection of each rat.
Peptides were prepared as a 23 mM stock solution in DMSO, and stored at −20° C. between experiments. At the time of use, the frozen stock solutions were thawed, and appropriate aliquots added to dilutions of Compound 48/80, along with appropriate amounts of DMSO, to result in the ratio of 5 μl DMSO to 0.1 ml aqueous Compound 48/80.
For injections, 0.1 ml Compound […], +/− test compounds were injected intradermally into anaesthetized, dyed, and shaved rats. Following a 15 minute incubation, the rats were sacrificed by cervical dislocation and the back skin was evulsed and placed on a light box. An image of the backlit skin was digitized using a CCD video capture camera and compatible hardware/software. The digitized image was analyzed using a scientific graphics analysis software package, and the areas of capillary permeability (bluing) were integrated and digital values were obtained for further analysis.
A dose response curve was generated using Compound 48/80 at various doses from ca. 0.01 μg through ca 15 μg. […] A dose of 0.15 μg of Compound 48/80 was selected for conducting further tests.
A dose response curve was prepared for the standard compound, f-Met-Leu-Phe, using the selected dose of 0.15 μg Compound 48/80. […]

For the molecule `CC(c1cc2ccccc2s1)N(O)C(N)=O` (centres unmarked) [Zileuton, N-[1-benzo[b]thien-2-ylethyl]-N-hydroxyurea, reference compound], in assay [1], the “Reduction of airway eosinophils over time course” value is “reduced eosinophils generally through 1-3 month”.

Turning to N-acetyl-Met-Leu-Phe [Example 3], in the assay with mast cells, the “% Degranulation” value amounted to 98%. As for “f-Met-Leu-Phe [Example 2, reference compound]”, the “Inhibition of degranulation induced by Compound 48/80, dose response curve” value with mast cells (doses of 0 to about 230 nM peptide, 0.15 μg Compound 48/80 (FIG. 2, FIG. 3)) is on record as “Inhibition of degranulation induced by Compound 48/80 was clearly shown”. Moreover, the “% Degranulation” value in the assay with mast cells came out at 60%. Regarding f-Met-Leu-Tyr [Example 10], the “% Degranulation” value in the assay on mast cells is reported as 30%.

The record behind these values is patent US20030130200A1, “Small peptides and methods for treatment of asthma and inflammation” (Hisatek, LLC, priority 1997, published 2003).
